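Cells were grown in 96-well plates and exposed to each compound for 48 hours at five concentrations; endpoints were interpolated linearly between bracketing concentrations, or set to the highest concentration if not reached. GI50 is the concentration that inhibits growth by half. TGI denotes the concentration required for complete inhibition of growth.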
Assays:
Test in all cases: NCI tumour cell line growth inhibition, 48 h
DU-145 prostate = test system: DU-145 prostate
KM12 colon = test system: KM12 colon
RPMI-8226 leukemia = test system: RPMI-8226 leukemia
HOP-92 NSCLC = test system: HOP-92 NSCLC
SNB-19 CNS = test system: SNB-19 CNS
SK-MEL-28 melanoma = test system: SK-MEL-28 melanoma
SK-OV-3 ovarian = test system: SK-OV-3 ovarian
UO-31 renal = test system: UO-31 renal
U251 CNS = test system: U251 CNS
T-47D breast = test system: T-47D breast
MALME-3M melanoma = test system: MALME-3M melanoma
PC-3 prostate = test system: PC-3 prostate
CCRF-CEM leukemia = test system: CCRF-CEM leukemia
K-562 leukemia = test system: K-562 leukemia
SF-539 CNS = test system: SF-539 CNS
SF-268 CNS = test system: SF-268 CNS
LOX IMVI melanoma = test system: LOX IMVI melanoma
OVCAR-3 ovarian = test system: OVCAR-3 ovarian
786-0 renal = test system: 786-0 renal
HCT-15 colon = test system: HCT-15 colon
NCI-H23 lung = test system: NCI-H23 lung
A498 renal = test system: A498 renal
HS 578T breast = test system: HS 578T breast
UACC-257 melanoma = test system: UACC-257 melanoma
RXF 393 renal = test system: RXF 393 renal
SK-MEL-2 melanoma = test system: SK-MEL-2 melanoma
MDA-MB-435 = test system: MDA-MB-435
SK-MEL-5 melanoma = test system: SK-MEL-5 melanoma
A549 NSCLC = test system: A549 NSCLC
NCI-H522 lung = test system: NCI-H522 lung
HCC-2998 colon = test system: HCC-2998 colon
OVCAR-5 ovarian = test system: OVCAR-5 ovarian
NCI-H226 lung = test system: NCI-H226 lung
HT29 colon = test system: HT29 colon
UACC-62 melanoma = test system: UACC-62 melanoma
COLO 205 colon = test system: COLO 205 colon
SR leukemia = test system: SR leukemia
MCF7 breast = test system: MCF7 breast
MOLT-4 leukemia = test system: MOLT-4 leukemia
NCI-H460 lung = test system: NCI-H460 lung
EKVX NSCLC = test system: EKVX NSCLC
OVCAR-4 ovarian = test system: OVCAR-4 ovarian
HCT-116 colon = test system: HCT-116 colon
SW-620 colon = test system: SW-620 colon
BT-549 breast = test system: BT-549 breast
TK-10 renal = test system: TK-10 renal
SF-295 CNS = test system: SF-295 CNS
CAKI-1 renal = test system: CAKI-1 renal
IGROV1 ovarian = test system: IGROV1 ovarian
MDA-MB-231 breast = test system: MDA-MB-231 breast
SN12C renal = test system: SN12C renal
ACHN renal = test system: ACHN renal
NCI/ADR-RES ovarian = test system: NCI/ADR-RES ovarian
OVCAR-8 ovarian = test system: OVCAR-8 ovarian
SNB-75 CNS = test system: SNB-75 CNS
HOP-62 NSCLC = test system: HOP-62 NSCLC
HL-60(TB) leukemia = test system: HL-60(TB) leukemia
M14 melanoma = test system: M14 melanoma
MDA-N = test system: MDA-N

## O=C(N/N=c1/ccoc2cccnc12)N1CCN(c2ncccn2)CC1
DU-145 prostate
  GI50: 0.796 µM
  TGI: 13.1 µM
KM12 colon
  GI50: 0.371 µM
  TGI: 10.2 µM
RPMI-8226 leukemia
  GI50: < 0.01 µM
  TGI: 2.04 µM
HOP-92 NSCLC
  GI50: 0.017 µM
  TGI: 2.68 µM
SNB-19 CNS
  GI50: 0.804 µM
  TGI: 16.8 µM
SK-MEL-28 melanoma
  GI50: 0.996 µM
  TGI: 13.3 µM
SK-OV-3 ovarian
  GI50: 0.194 µM
  TGI: 4.55 µM
UO-31 renal
  GI50: 0.397 µM
  TGI: 3.96 µM
U251 CNS
  GI50: 0.0777 µM
  TGI: 9.15 µM
T-47D breast
  GI50: < 0.01 µM
  TGI: 7.85 µM
MALME-3M melanoma
  GI50: 1.17 µM
  TGI: 7.22 µM
PC-3 prostate
  GI50: < 0.01 µM
  TGI: 6.38 µM
CCRF-CEM leukemia
  GI50: < 0.01 µM
  TGI: > 54.4 µM
K-562 leukemia
  GI50: < 0.01 µM
  TGI: 4.82 µM
SF-539 CNS
  GI50: 1.39 µM
  TGI: 9.58 µM
SF-268 CNS
  GI50: 0.795 µM
  TGI: 15.1 µM
LOX IMVI melanoma
  GI50: < 0.0158 µM
  TGI: 5.12 µM
OVCAR-3 ovarian
  GI50: < 0.01 µM
  TGI: 4.46 µM
786-0 renal
  GI50: 0.291 µM
  TGI: 2.59 µM
HCT-15 colon
  GI50: < 0.01 µM
  TGI: 10.1 µM
NCI-H23 lung
  GI50: 0.0308 µM
  TGI: 16.7 µM
A498 renal
  GI50: 0.503 µM
  TGI: 2.87 µM
HS 578T breast
  GI50: 1.07 µM
  TGI: 24.5 µM
UACC-257 melanoma
  GI50: 0.0387 µM
  TGI: 5.15 µM
RXF 393 renal
  GI50: 1.09 µM
  TGI: 4.03 µM
SK-MEL-2 melanoma
  GI50: 1.11 µM
  TGI: 8.42 µM
MDA-MB-435
  GI50: 0.568 µM
  TGI: 8.24 µM
SK-MEL-5 melanoma
  GI50: 0.383 µM
  TGI: 2.97 µM
A549 NSCLC
  GI50: 0.324 µM
  TGI: 9.81 µM
NCI-H522 lung
  GI50: 1.02 µM
  TGI: 17.2 µM
HCC-2998 colon
  GI50: 0.905 µM
  TGI: 6.59 µM
OVCAR-5 ovarian
  GI50: 1.5 µM
  TGI: 38.3 µM
NCI-H226 lung
  TGI: 2.56 µM
HT29 colon
  GI50: < 0.01 µM
  TGI: 7.39 µM
UACC-62 melanoma
  GI50: 0.457 µM
  TGI: 5.12 µM
COLO 205 colon
  GI50: < 0.01 µM
  TGI: 7.57 µM
SR leukemia
  GI50: 0.153 µM
  TGI: 15.6 µM
MCF7 breast
  GI50: < 0.01 µM
  TGI: 11.9 µM
MOLT-4 leukemia
  GI50: < 0.0129 µM
  TGI: 8.06 µM
NCI-H460 lung
  GI50: 0.0896 µM
  TGI: 11.1 µM
EKVX NSCLC
  GI50: 0.16 µM
  TGI: 10.6 µM
OVCAR-4 ovarian
  GI50: < 0.0129 µM
  TGI: 4.65 µM
HCT-116 colon
  GI50: < 0.01 µM
  TGI: 2.25 µM
SW-620 colon
  GI50: < 0.0131 µM
  TGI: 10.6 µM
BT-549 breast
  GI50: 0.321 µM
  TGI: 3.37 µM
TK-10 renal
  GI50: 0.992 µM
  TGI: 8.08 µM
SF-295 CNS
  GI50: 0.268 µM
  TGI: 6.03 µM
CAKI-1 renal
  GI50: 0.425 µM
  TGI: 7.64 µM
IGROV1 ovarian
  GI50: < 0.01 µM
  TGI: 7.98 µM
MDA-MB-231 breast
  GI50: 0.278 µM
  TGI: 7.41 µM
SN12C renal
  GI50: 1.57 µM
  TGI: 14.8 µM
ACHN renal
  GI50: 0.0145 µM
  TGI: 13.2 µM
NCI/ADR-RES ovarian
  GI50: < 0.0193 µM
  TGI: 12.3 µM
OVCAR-8 ovarian
  GI50: 0.031 µM
  TGI: 6.67 µM
SNB-75 CNS
  GI50: 1.63 µM
  TGI: 9.33 µM
HOP-62 NSCLC
  GI50: 0.0436 µM
  TGI: 7.42 µM
HL-60(TB) leukemia
  GI50: 0.0149 µM
  TGI: 1.69 µM
M14 melanoma
  GI50: 0.0831 µM
  TGI: 2.59 µM

## CC(C)CCNC(=O)c1ccc(CNC(=O)/C=C/c2csc(-c3ccccc3)n2)cc1
DU-145 prostate
  TGI: > 100 µM
KM12 colon
  TGI: > 100 µM
RPMI-8226 leukemia
  TGI: > 100 µM
HOP-92 NSCLC
  TGI: > 100 µM
SNB-19 CNS
  TGI: 56.6 µM
SK-MEL-28 melanoma
  TGI: > 100 µM
SK-OV-3 ovarian
  TGI: > 100 µM
UO-31 renal
  TGI: 58.6 µM
U251 CNS
  TGI: 96.8 µM
T-47D breast
  TGI: > 100 µM
MALME-3M melanoma
  TGI: > 100 µM
PC-3 prostate
  TGI: > 100 µM
CCRF-CEM leukemia
  TGI: > 100 µM
K-562 leukemia
  TGI: > 100 µM
SF-539 CNS
  TGI: > 100 µM
SF-268 CNS
  TGI: > 100 µM
LOX IMVI melanoma
  TGI: > 100 µM
OVCAR-3 ovarian
  TGI: > 100 µM
786-0 renal
  TGI: > 100 µM
HCT-15 colon
  TGI: > 100 µM
NCI-H23 lung
  TGI: > 100 µM
A498 renal
  TGI: > 100 µM
HS 578T breast
  TGI: > 100 µM
UACC-257 melanoma
  TGI: > 100 µM
RXF 393 renal
  TGI: 73.6 µM
SK-MEL-2 melanoma
  TGI: > 100 µM
MDA-MB-435
  TGI: > 100 µM
SK-MEL-5 melanoma
  TGI: > 100 µM
A549 NSCLC
  TGI: > 100 µM
NCI-H522 lung
  TGI: > 100 µM
HCC-2998 colon
  TGI: > 100 µM
OVCAR-5 ovarian
  TGI: > 100 µM
NCI-H226 lung
  TGI: > 100 µM
HT29 colon
  TGI: > 100 µM
MDA-N
  TGI: > 100 µM
UACC-62 melanoma
  TGI: > 100 µM
COLO 205 colon
  TGI: > 100 µM
MCF7 breast
  TGI: > 100 µM
MOLT-4 leukemia
  TGI: > 100 µM
NCI-H460 lung
  TGI: > 100 µM
EKVX NSCLC
  TGI: > 100 µM
OVCAR-4 ovarian
  TGI: > 100 µM
HCT-116 colon
  TGI: > 100 µM
SW-620 colon
  TGI: > 100 µM
BT-549 breast
  TGI: > 100 µM
TK-10 renal
  TGI: > 100 µM
SF-295 CNS
  TGI: > 100 µM
CAKI-1 renal
  TGI: > 100 µM
IGROV1 ovarian
  TGI: > 100 µM
MDA-MB-231 breast
  TGI: > 100 µM
SN12C renal
  TGI: > 100 µM
ACHN renal
  TGI: > 100 µM
NCI/ADR-RES ovarian
  TGI: > 100 µM
OVCAR-8 ovarian
  TGI: 79.2 µM
SNB-75 CNS
  TGI: 41.8 µM
HOP-62 NSCLC
  TGI: 37.4 µM
M14 melanoma
  TGI: > 100 µM

## C[N+](C)(C)C1(C(=O)[O-])CC1
DU-145 prostate
  TGI: > 100 µM
RPMI-8226 leukemia
  TGI: > 100 µM
HOP-92 NSCLC
  TGI: > 100 µM
SNB-19 CNS
  TGI: > 100 µM
SK-MEL-28 melanoma
  TGI: > 100 µM
U251 CNS
  TGI: > 100 µM
T-47D breast
  TGI: > 100 µM
MALME-3M melanoma
  TGI: > 100 µM
PC-3 prostate
  TGI: > 100 µM
CCRF-CEM leukemia
  TGI: > 100 µM
K-562 leukemia
  TGI: > 100 µM
SF-539 CNS
  TGI: > 100 µM
SF-268 CNS
  TGI: > 100 µM
LOX IMVI melanoma
  TGI: > 100 µM
OVCAR-3 ovarian
  TGI: > 100 µM
786-0 renal
  TGI: > 100 µM
HCT-15 colon
  TGI: > 100 µM
NCI-H23 lung
  TGI: > 100 µM
A498 renal
  TGI: > 100 µM
HS 578T breast
  TGI: > 100 µM
UACC-257 melanoma
  TGI: > 100 µM
RXF 393 renal
  TGI: > 100 µM
MDA-MB-435
  TGI: > 100 µM
SK-MEL-5 melanoma
  TGI: > 100 µM
A549 NSCLC
  TGI: > 100 µM
NCI-H522 lung
  TGI: > 100 µM
HCC-2998 colon
  TGI: > 100 µM
OVCAR-5 ovarian
  TGI: > 100 µM
NCI-H226 lung
  TGI: > 100 µM
HT29 colon
  TGI: > 100 µM
MDA-N
  TGI: > 100 µM
SR leukemia
  TGI: > 100 µM
MCF7 breast
  TGI: > 100 µM
MOLT-4 leukemia
  TGI: > 100 µM
NCI-H460 lung
  TGI: > 100 µM
EKVX NSCLC
  TGI: > 100 µM
OVCAR-4 ovarian
  TGI: > 100 µM
HCT-116 colon
  TGI: > 100 µM
SW-620 colon
  TGI: > 100 µM
TK-10 renal
  TGI: > 100 µM
SF-295 CNS
  TGI: > 100 µM
IGROV1 ovarian
  TGI: > 100 µM
SN12C renal
  TGI: > 100 µM
ACHN renal
  TGI: > 100 µM
NCI/ADR-RES ovarian
  TGI: > 100 µM
OVCAR-8 ovarian
  TGI: > 100 µM
SNB-75 CNS
  TGI: > 100 µM
HOP-62 NSCLC
  TGI: > 100 µM
HL-60(TB) leukemia
  TGI: > 100 µM
M14 melanoma
  TGI: > 100 µM
